Data published in ChEMBL document CHEMBL3885881, “DrugMatrix”.

Organism: Rattus norvegicus
Assay: DrugMatrix - Regimen: Daily Repeat
Type: toxicity, organism-based, Sprague-Dawley
Design: regimen Daily Repeat, gender Male, age 6-8 weeks
Conditions: in vivo, sc, 120 h, route subcutaneous, time 5 day, vehicle 100 % SALINE; for ALANINE AMINOTRANSFERASE / ALBUMIN / ALKALINE PHOSPHATASE / ASPARTATE AMINOTRANSFERASE / BLOOD UREA NITROGEN / CARBON DIOXIDE / CHLORIDE / CHOLESTEROL / CREATINE PHOSPHOKINASE / CREATININE / GLUCOSE / LACTATE DEHYDROGENASE / LIPASE / PHOSPHORUS / POTASSIUM / SODIUM / TOTAL BILIRUBIN / TOTAL PROTEIN / URIC ACID: tissue Plasma
[1] = 50 mg/kg, tissue Blood, dose level High

CC(N)Cc1c[nH]c2ccc(OCc3cccs3)cc12 (configuration not stated) [BW-723C86]
ALANINE AMINOTRANSFERASE (10 mg/kg, dose level Low): 53.33 u/L
ALBUMIN (10 mg/kg, dose level Low): 4.03 G/DL
ALKALINE PHOSPHATASE (10 mg/kg, dose level Low): 406.67 u/L
ASPARTATE AMINOTRANSFERASE (10 mg/kg, dose level Low): 85.67 u/L
BLOOD UREA NITROGEN (10 mg/kg, dose level Low): 14.67 mg/dL
CARBON DIOXIDE (10 mg/kg, dose level Low): 33.33 mmol/L
CHLORIDE (10 mg/kg, dose level Low): 103.33 MEQ/L
CHOLESTEROL (10 mg/kg, dose level Low): 90.33 mg/dL
CREATINE PHOSPHOKINASE (10 mg/kg, dose level Low): 200.33 u/L
CREATININE (10 mg/kg, dose level Low): 0.18 mg/dL
GLUCOSE (10 mg/kg, dose level Low): 150.33 mg/dL
LACTATE DEHYDROGENASE (10 mg/kg, dose level Low): 93 u/L
LIPASE (10 mg/kg, dose level Low): 8 u/L
PHOSPHORUS (10 mg/kg, dose level Low): 13.1 mg/dL
POTASSIUM (10 mg/kg, dose level Low): 7.02 MEQ/L
SODIUM (10 mg/kg, dose level Low): 148.43 MEQ/L
TOTAL BILIRUBIN (10 mg/kg, dose level Low): 0.1 mg/dL
TOTAL PROTEIN (10 mg/kg, dose level Low): 6.43 G/DL
URIC ACID (10 mg/kg, dose level Low): 1.67 mg/dL
ABSOLUTE BASOPHIL [1]: 0 CELLS/uL
ABSOLUTE EOSINOPHIL [1]: 0 CELLS/uL
ABSOLUTE LYMPHOCYTE [1]: 7706.33 CELLS/uL
ABSOLUTE MONOCYTE [1]: 71.33 CELLS/uL
ABSOLUTE SEGMENTED NEUTROPHIL [1]: 3055.67 CELLS/uL
BASOPHIL [1]: 0%
EOSINOPHIL [1]: 0%
ERYTHROCYTE COUNT [1]: 5.21 x10E6/uL
HEMATOCRIT [1]: 30.4%
HEMOGLOBIN [1]: 11.63 G/DL
LEUKOCYTE COUNT [1]: 10.83 x10E3/uL
LYMPHOCYTE [1]: 71%
MEAN CORPUSCULAR HEMOGLOBIN [1]: 22.4 pg
MEAN CORPUSCULAR HEMOGLOBIN CONCENTRATION [1]: 38.3 G/DL
MEAN CORPUSCULAR VOLUME [1]: 58.4 fL
MONOCYTE [1]: 0.67%
NEUTROPHIL [1]: 28.33%
NUCLEATED RED BLOOD CELLS [1]: 0.33 /100WBC
PLATELET COUNT [1]: 1382.67 x10E3/uL
ALANINE AMINOTRANSFERASE (50 mg/kg, dose level High): 47.33 u/L
ALBUMIN (50 mg/kg, dose level High): 3.33 G/DL
ALKALINE PHOSPHATASE (50 mg/kg, dose level High): 343 u/L
ASPARTATE AMINOTRANSFERASE (50 mg/kg, dose level High): 83.67 u/L
BLOOD UREA NITROGEN (50 mg/kg, dose level High): 15 mg/dL
CARBON DIOXIDE (50 mg/kg, dose level High): 28 mmol/L
CHLORIDE (50 mg/kg, dose level High): 104.33 MEQ/L
CHOLESTEROL (50 mg/kg, dose level High): 78.33 mg/dL
CREATINE PHOSPHOKINASE (50 mg/kg, dose level High): 168.33 u/L
CREATININE (50 mg/kg, dose level High): 0.18 mg/dL
GLUCOSE (50 mg/kg, dose level High): 174 mg/dL
LACTATE DEHYDROGENASE (50 mg/kg, dose level High): 96.33 u/L
LIPASE (50 mg/kg, dose level High): 8.33 u/L
PHOSPHORUS (50 mg/kg, dose level High): 13.63 mg/dL
POTASSIUM (50 mg/kg, dose level High): 6.41 MEQ/L
SODIUM (50 mg/kg, dose level High): 147.13 MEQ/L
TOTAL BILIRUBIN (50 mg/kg, dose level High): 0.1 mg/dL
TOTAL PROTEIN (50 mg/kg, dose level High): 5.87 G/DL
URIC ACID (50 mg/kg, dose level High): 2.1 mg/dL
